Among the data in US12486290B2, “Isoindolinone and indazole compounds for the degradation of EGFR” (C4 THERAPEUTICS, INC., priority 2019, dated 2025) are DC50 values, retold here.

Common to all, as to type: cell-based
Assay [1] deals with T1, EGFR T790M/L858R (NCI-H1975 cells) (Homo sapiens, UniProt P00533, L858R/T790M).
T1 construct: NCI-H1975 (harboring EGFR heterozygous T790M/L858R mutations); host or cells: NCI-H1975
Briefly: EGFR (L858R) degradation analysis, Total EGFR (L858R) HTRF, NCI-H1975 cells. To be noted: 6 hours. The essentials: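 Cells (10000/well NCI-H1975 and NCI-H1975+CS, 1000/well NCI-H3255) treated with 11-point half-log titrations from 10 μM top, in duplicate, for 6 hours at 37° C., 5% CO2. Total EGFR (L858R) quantified by HTRF FRET; untreated cells as negative and cell-free wells as positive control.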
In general terms: Time-resolved FRET reads energy transfer from a long-lived donor to a nearby acceptor.

Assay [2] deals with T2, EGFR T790M/L858R/C797S (NCI-H1975+CS cells) (Homo sapiens, UniProt P00533, C797S/L858R/T790M).
T2 construct: NCI-H1975+CS (harboring EGFR heterozygous T/790M/L858R/C797S mutations) was generated using CRISPR technology; host or cells: NCI-H1975+CS (CRISPR-edited NCI-H1975)
As to the kind of experiment: EGFR (L858R) degradation analysis, Total EGFR (L858R) HTRF, NCI-H1975+CS cells. To be noted: 6 hours, read-out: H1975 C797S clone EGFR DC50. The text has this: (§1) NCI-H1975 (harboring EGFR heterozygous T790M/L858R mutations) and NCI-H3255 (harboring EGFR heterozygous L858R mutation) were purchased from ATCC and NCI, respectively. NCI-H1975+CS (harboring EGFR heterozygous T/790M/L858R/C797S mutations) was generated using CRISPR technology to introduce the additional C797S mutation by Horizon Discovery. RPMI 1640 no-phenol red medium and fetal bovine serum (FBS) were purchased from Gibco (Grand Island, NY, USA). Cell culture flasks and 384-well microplates were acquired from VWR (Radnor, PA, USA). Total EGFR (L858R) HTRF assay kits were purchased from Cisbio (Bedford, MA, USA).
(§2) Degradation of EGFR protein containing L858R mutation was determined based on quantification of FRET signal using Total EGFR (L858R) HTRF assay kit. Test compounds were added to the 384-well plate from a top concentration of 10 μM with 11 points, half log titration in duplicates. NCI-H1975, NCI-H1975+CS or NCI-H3255 cells were added into 384-well plates at a cell density of 10000, 10000 or 1000 cells per well, respectively. The plates were kept at 37° C. with 5% CO2 for 6 hours. Cells treated in the absence of the test compound were the negative control. Positive control was set by wells containing all reagents but no cells. FRET signal was acquired on EnVision™ Multilabel Reader (PerkinElmer, Santa Clara, CA, USA).

Assay [3] concerns the target T3, EGFR L858R (NCI-H3255 cells) (Homo sapiens, UniProt P00533, L858R).
T3 construct: NCI-H3255 (harboring EGFR heterozygous L858R mutation); host or cells: NCI-H3255
Briefly: EGFR (L858R) degradation analysis, Total EGFR (L858R) HTRF, NCI-H3255 cells. To be noted: 6 hours.
From the text: as §1, §2

T1 sequence (P00533 25-1210 T790M/L858R): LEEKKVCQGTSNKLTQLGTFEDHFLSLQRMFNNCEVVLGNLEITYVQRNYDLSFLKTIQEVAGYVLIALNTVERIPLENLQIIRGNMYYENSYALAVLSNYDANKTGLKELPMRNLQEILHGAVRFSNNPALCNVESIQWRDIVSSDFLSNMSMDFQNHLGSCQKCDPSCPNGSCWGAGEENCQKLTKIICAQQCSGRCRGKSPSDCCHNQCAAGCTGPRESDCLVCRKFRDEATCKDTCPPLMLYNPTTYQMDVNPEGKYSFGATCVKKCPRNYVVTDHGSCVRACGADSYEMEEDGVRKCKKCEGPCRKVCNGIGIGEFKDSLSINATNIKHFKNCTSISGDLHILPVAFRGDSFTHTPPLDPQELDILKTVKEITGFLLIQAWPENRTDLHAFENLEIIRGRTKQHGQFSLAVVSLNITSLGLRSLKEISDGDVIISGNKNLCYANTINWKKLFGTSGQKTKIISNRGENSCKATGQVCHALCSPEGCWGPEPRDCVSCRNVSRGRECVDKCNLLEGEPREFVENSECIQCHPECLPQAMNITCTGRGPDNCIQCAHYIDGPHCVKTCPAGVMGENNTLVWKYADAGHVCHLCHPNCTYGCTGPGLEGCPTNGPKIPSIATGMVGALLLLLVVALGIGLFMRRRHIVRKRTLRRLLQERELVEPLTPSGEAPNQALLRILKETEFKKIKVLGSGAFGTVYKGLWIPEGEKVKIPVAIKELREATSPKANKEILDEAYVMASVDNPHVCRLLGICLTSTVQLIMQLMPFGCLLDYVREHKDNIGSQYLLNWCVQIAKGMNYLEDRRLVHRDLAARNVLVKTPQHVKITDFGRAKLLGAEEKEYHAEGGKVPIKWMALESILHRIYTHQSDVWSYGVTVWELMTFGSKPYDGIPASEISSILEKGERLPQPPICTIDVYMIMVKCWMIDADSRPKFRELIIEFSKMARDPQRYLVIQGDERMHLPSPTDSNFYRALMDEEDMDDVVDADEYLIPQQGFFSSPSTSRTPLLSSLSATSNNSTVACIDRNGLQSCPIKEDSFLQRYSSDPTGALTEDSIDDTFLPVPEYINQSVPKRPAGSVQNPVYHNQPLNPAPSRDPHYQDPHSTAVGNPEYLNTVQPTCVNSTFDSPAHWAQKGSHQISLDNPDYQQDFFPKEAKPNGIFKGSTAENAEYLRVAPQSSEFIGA
T2 sequence (P00533 25-1210 T790M/C797S/L858R): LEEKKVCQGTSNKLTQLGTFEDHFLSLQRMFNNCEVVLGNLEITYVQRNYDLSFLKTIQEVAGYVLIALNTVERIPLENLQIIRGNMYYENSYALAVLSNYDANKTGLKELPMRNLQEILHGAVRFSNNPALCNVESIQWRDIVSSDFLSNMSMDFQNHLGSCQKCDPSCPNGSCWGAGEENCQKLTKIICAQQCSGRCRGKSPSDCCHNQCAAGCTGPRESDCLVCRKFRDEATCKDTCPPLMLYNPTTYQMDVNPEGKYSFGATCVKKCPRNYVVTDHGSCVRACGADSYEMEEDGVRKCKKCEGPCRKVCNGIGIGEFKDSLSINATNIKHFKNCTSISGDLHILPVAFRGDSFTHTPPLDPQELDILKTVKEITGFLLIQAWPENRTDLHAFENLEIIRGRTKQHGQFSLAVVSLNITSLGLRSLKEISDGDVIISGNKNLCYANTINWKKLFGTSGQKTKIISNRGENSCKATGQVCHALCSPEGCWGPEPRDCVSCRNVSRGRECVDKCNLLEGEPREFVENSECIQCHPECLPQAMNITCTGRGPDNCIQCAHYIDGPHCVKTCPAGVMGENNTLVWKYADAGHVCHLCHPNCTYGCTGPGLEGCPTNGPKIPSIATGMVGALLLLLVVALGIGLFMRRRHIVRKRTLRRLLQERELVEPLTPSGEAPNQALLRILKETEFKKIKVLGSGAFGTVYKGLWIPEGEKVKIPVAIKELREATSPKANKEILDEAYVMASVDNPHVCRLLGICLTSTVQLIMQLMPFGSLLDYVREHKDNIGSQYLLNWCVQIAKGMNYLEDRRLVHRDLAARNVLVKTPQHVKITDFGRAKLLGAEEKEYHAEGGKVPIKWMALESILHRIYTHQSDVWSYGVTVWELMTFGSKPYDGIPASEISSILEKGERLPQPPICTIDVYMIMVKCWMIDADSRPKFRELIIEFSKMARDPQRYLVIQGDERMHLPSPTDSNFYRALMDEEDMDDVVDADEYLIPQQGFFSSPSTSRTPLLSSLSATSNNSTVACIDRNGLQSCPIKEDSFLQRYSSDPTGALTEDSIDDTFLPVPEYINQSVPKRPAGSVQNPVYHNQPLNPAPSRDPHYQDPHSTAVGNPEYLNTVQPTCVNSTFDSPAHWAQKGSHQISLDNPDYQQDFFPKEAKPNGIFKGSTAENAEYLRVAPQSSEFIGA
T3 sequence (P00533 25-1210 L858R): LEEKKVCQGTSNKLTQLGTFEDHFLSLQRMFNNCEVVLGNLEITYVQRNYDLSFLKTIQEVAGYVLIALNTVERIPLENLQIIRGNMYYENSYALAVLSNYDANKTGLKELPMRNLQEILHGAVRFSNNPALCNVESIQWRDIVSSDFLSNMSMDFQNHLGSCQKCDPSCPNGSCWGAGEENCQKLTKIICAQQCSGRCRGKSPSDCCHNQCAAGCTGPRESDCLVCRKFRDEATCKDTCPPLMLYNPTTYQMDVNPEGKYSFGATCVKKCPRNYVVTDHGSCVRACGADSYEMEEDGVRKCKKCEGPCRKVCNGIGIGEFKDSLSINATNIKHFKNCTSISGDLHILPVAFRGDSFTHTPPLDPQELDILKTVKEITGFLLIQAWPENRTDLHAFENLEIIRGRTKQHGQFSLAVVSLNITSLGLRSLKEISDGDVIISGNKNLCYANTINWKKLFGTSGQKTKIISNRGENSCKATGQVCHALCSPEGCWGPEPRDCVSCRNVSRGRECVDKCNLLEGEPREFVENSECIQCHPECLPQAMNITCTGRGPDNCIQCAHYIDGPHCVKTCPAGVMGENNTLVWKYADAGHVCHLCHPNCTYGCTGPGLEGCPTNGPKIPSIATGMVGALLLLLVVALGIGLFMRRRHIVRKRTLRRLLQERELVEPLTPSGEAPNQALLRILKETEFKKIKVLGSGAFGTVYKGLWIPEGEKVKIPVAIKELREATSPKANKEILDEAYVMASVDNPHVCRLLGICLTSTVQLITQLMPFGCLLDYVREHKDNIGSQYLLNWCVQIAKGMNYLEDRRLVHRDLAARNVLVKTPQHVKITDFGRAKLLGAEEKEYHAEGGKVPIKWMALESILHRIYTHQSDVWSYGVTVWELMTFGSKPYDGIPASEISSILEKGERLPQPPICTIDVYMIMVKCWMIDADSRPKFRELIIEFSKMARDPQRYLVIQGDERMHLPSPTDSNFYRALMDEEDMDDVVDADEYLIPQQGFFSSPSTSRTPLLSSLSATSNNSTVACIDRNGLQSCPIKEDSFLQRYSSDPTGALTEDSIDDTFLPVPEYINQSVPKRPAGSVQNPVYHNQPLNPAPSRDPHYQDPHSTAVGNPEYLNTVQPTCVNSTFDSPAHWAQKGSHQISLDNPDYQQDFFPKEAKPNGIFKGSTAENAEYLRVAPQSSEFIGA

For `Cn1nc(N2CCC(=O)NC2=O)c2ccc(C3CCN(CC(=O)N4CCN(c5ccc(-c6cc(F)c7c(c6)C(=O)N(C(C(=O)Nc6nccs6)c6ncn8c6CCC8)C7)cc5)CC4)CC3)cc21` (stereo not drawn) [Compound 17, 2-(6,7-dihydro-5H-pyrrolo[1,2-c]imidazol-1-yl)-2-(6-(4-(4-(2-(4-(3-(2,4-dioxotetrahydropyrimidin-1(2H)-yl)-1-methyl-1H-indazol-6-yl)piperidin-1-yl)acetyl)piperazin-1-yl)phenyl)-4-fluoro-1-oxoisoindolin-2-yl)-N-(thiazol-2-yl)acetamide], the DC50 – broadly, the midpoint of the concentration-degradation curve – in assay [1] is 29 nM; in assay [2], 22 nM; in assay [3], 6 nM.
The corresponding values for `O=C1CCC(Nc2ccc(C3CCN(CC(=O)N4CCN(c5ccc(-c6cc(F)c7c(c6)C(=O)N(C(C(=O)Nc6ccccn6)c6ncn8c6CCC8)C7)cc5)CC4)CC3)cc2)C(=O)N1` (stereo not drawn) [Compound 19, 2-(6,7-dihydro-5H-pyrrolo[1,2-c]imidazol-1-yl)-2-(6-(4-(4-(2-(4-(4-((2,6-dioxopiperidin-3-yl)amino)phenyl)piperidin-1-yl)acetyl)piperazin-1-yl)phenyl)-4-fluoro-1-oxoisoindolin-2-yl)-N-(pyridin-2-yl)acetamide] are 50 nM, 20 nM and 13 nM.
Turning to `O=C1CCC(Nc2ccc(C3CCN(CC(=O)N4CCN(c5ccc(-c6cc(F)c7c(c6)C(=O)N(C(C(=O)Nc6ccccn6)c6ncn8c6CCC8)C7)cc5)CC4)CC3)c(F)c2)C(=O)N1` (stereo not drawn) [Compound 20, 2-(6,7-dihydro-5H-pyrrolo[1,2-c]imidazol-1-yl)-2-[6-[4-[4-[2-[4-[4-[(2,6-dioxo-3-piperidyl)amino]-2-fluoro-phenyl]-1-piperidyl]acetyl]piperazin-1-yl]phenyl]-4-fluoro-1-oxo-isoindolin-2-yl]-N-(2-pyridyl)acetamide], the figures for the DC50 in assay [1], in assay [2] and in assay [3] were 59 nM, 34 nM and 25 nM, respectively.
For `O=C1CCC(Nc2ccc(C3CCN(CC(=O)N4CCC(c5ccc(-c6cc(F)c7c(c6)C(=O)N(C(C(=O)Nc6nccs6)c6ncn8c6CCC8)C7)cc5)CC4)CC3)cc2)C(=O)N1` (stereo not drawn) [Compound 21, 2-(6,7-dihydro-5H-pyrrolo[1,2-c]imidazol-1-yl)-2-(6-(4-(1-(2-(4-(4-((2,6-dioxopiperidin-3-yl)amino)phenyl)piperidin-1-yl)acetyl)piperidin-4-yl)phenyl)-4-fluoro-1-oxoisoindolin-2-yl)-N-(thiazol-2-yl)acetamide], in that order: 31 nM, 17 nM and 11 nM.
The corresponding values for `O=C1CC[C@@H](Nc2ccc(C3CCN(CC(=O)N4CCC(c5ccc(-c6cc(F)c7c(c6)C(=O)N(C(C(=O)Nc6nccs6)c6ncn8c6CCC8)C7)cc5)CC4)CC3)c(F)c2)C(=O)N1` (stereo partly drawn) [Compound 24, 2-(6,7-dihydro-5H-pyrrolo[1,2-c]imidazol-1-yl)-2-(6-(4-(1-(2-(4-(4-(((R)-2,6-dioxopiperidin-3-yl)amino)-2-fluorophenyl)piperidin-1-yl)acetyl)piperidin-4-yl)phenyl)-4-fluoro-1-oxoisoindolin-2-yl)-N-(thiazol-2-yl)acetamide] are 70 nM, 24 nM and 6 nM.
For `N#Cc1cc(NC2CCC(=O)NC2=O)ccc1C1CCN(CC(=O)N2CCC(c3ccc(-c4cc(F)c5c(c4)C(=O)N(C(C(=O)Nc4nccs4)c4ncn6c4CCC6)C5)cc3)CC2)CC1` (stereo not drawn) [Compound 25, 2-(6-(4-(1-(2-(4-(2-cyano-4-((2,6-dioxopiperidin-3-yl)amino)phenyl)piperidin-1-yl)acetyl)piperidin-4-yl)phenyl)-4-fluoro-1-oxoisoindolin-2-yl)-2-(6,7-dihydro-5H-pyrrolo[1,2-c]imidazol-1-yl)-N-(thiazol-2-yl)acetamide], in that order: 25 nM, 17 nM and 6 nM.
Turning to `O=C1CC[C@H](Nc2ccc(C3CCN(CC(=O)N4CCC(Oc5ccc(-c6cc(F)c7c(c6)C(=O)N(C(C(=O)Nc6nccs6)c6ncn8c6CCC8)C7)cc5)CC4)CC3)cc2)C(=O)N1` (stereo partly drawn) [Compound 32, 2-(6,7-dihydro-5H-pyrrolo[1,2-c]imidazol-1-yl)-2-[6-[4-[[1-[2-[4-[4-[[(3S)-2,6-dioxo-3-piperidyl]amino]phenyl]-1-piperidyl]acetyl]-4-piperidyl]oxy]phenyl]-4-fluoro-1-oxo-isoindolin-2-yl]-N-thiazol-2-yl-acetamide], the DC50 was determined as 47 nM in assay [1], 11 nM in assay [2] and 12 nM in assay [3].
The corresponding values for `O=C1CC[C@@H](Nc2ccc(C3CCN(CC(=O)N4CCC(Oc5ccc(-c6cc(F)c7c(c6)C(=O)N(C(C(=O)Nc6nccs6)c6ncn8c6CCC8)C7)cc5)CC4)CC3)cc2)C(=O)N1` (stereo partly drawn) [Compound 33, 2-(6,7-dihydro-5H-pyrrolo[1,2-c]imidazol-1-yl)-2-[6-[4-[[1-[2-[4-[4-[[(3R)-2,6-dioxo-3-piperidyl]amino]phenyl]-1-piperidyl]acetyl]-4-piperidyl]oxy]phenyl]-4-fluoro-1-oxo-isoindolin-2-yl]-N-thiazol-2-yl-acetamide] are 38 nM, 19 nM and 8 nM.
For the molecule `O=C1CCC(Nc2ccc(C3CCN(CC(=O)N4CCC(Oc5ccc(-c6cc(F)c7c(c6)C(=O)N(C(C(=O)Nc6nccs6)c6ncn8c6CCC8)C7)cc5)CC4)CC3)cc2F)C(=O)N1` (stereo not drawn) [Compound 34, 2-(6,7-dihydro-5H-pyrrolo[1,2-c]imidazol-1-yl)-2-(6-(4-((1-(2-(4-(4-((2,6-dioxopiperidin-3-yl)amino)-3-fluorophenyl)piperidin-1-yl)acetyl)piperidin-4-yl)oxy)phenyl)-4-fluoro-1-oxoisoindolin-2-yl)-N-(thiazol-2-yl)acetamide], the half-maximal degradation concentration (DC50) in assay [1] came out at 57 nM; in assay [2], 22 nM; in assay [3], 13 nM.
For `O=C1CCC(Nc2ccc(C3CCN(CC(=O)N4CCC(Oc5ccc(-c6cc(F)c7c(c6)C(=O)N(C(C(=O)Nc6nccs6)c6ncn8c6CCC8)C7)cc5)CC4)CC3)c(F)c2)C(=O)N1` (stereo not drawn) [Compound 35, 2-(6,7-dihydro-5H-pyrrolo[1,2-c]imidazol-1-yl)-2-(6-(4-((1-(2-(4-(4-((2,6-dioxopiperidin-3-yl)amino)-2-fluorophenyl)piperidin-1-yl)acetyl)piperidin-4-yl)oxy)phenyl)-4-fluoro-1-oxoisoindolin-2-yl)-N-(thiazol-2-yl)acetamide], in that order: 46 nM, 12 nM and 9 nM.
For `N#Cc1cc(NC2CCC(=O)NC2=O)ccc1C1CCN(CC(=O)N2CCC(Oc3ccc(-c4cc(F)c5c(c4)C(=O)N(C(C(=O)Nc4nccs4)c4ncn6c4CCC6)C5)cc3)CC2)CC1` (stereo not drawn) [Compound 37, 2-(6-(4-((1-(2-(4-(2-cyano-4-((2,6-dioxopiperidin-3-yl)amino)phenyl)piperidin-1-yl)acetyl)piperidin-4-yl)oxy)phenyl)-4-fluoro-1-oxoisoindolin-2-yl)-2-(6,7-dihydro-5H-pyrrolo[1,2-c]imidazol-1-yl)-N-(thiazol-2-yl)acetamide], in that order: 46 nM, 19 nM and 16 nM.
Turning to `O=C1CC[C@H](Nc2ccc(C3CCN(CC(=O)N4CCN(c5ccc(-c6cc(F)c7c(c6)C(=O)N(C(C(=O)Nc6nccs6)c6ncn8c6C[C@@H](F)C8)C7)cc5)CC4)CC3)c(F)c2)C(=O)N1` (stereo partly drawn) [Compound 44, 2-[6-[4-[4-[2-[4-[4-[[(3S)-2,6-dioxo-3-piperidyl]amino]-2-fluoro-phenyl]-1-piperidyl]acetyl]piperazin-1-yl]phenyl]-4-fluoro-1-oxo-isoindolin-2-yl]-2-[(6R)-6-fluoro-6,7-dihydro-5H-pyrrolo[1,2-c]imidazol-1-yl]-N-thiazol-2-yl-acetamide], the results for the 50% degradation concentration (DC50) in assay [1], in assay [2] and in assay [3] were 22 nM, 12 nM and 6 nM, respectively.
